Test results reported in patent US5912164A, “Stereoselective hydrolysis of chiral carboxylic acid esters using esterase from ophiostoma or ceratocystis” (Laboratorios Menarini S.A., priority 1993, dated 1999).
Blank lines part the entries; values can stand above or below the molecule they belong to.

Experiments:
[1] = system: AJ3 crude enzyme solution (esterase); assay: Hydrolysis of racemic ketoprofen esters in 2-phase biotransformations; type: biochemical, Ophiostoma novo-ulmi; conditions: ester 20 g/l in cyclohexane, 24 hours, 25° C.
Protocol: Various esters of racemic ketoprofen were dissolved in cyclohexane to a concentration of 20 g/l. The esters used were methyl, ethyl, n-propyl, n-butyl, n-pentyl, n-hexyl. In the case of methyl ester, a suspension was prepared due to low solubility of ester in cyclohexane.
To 5 ml aliquots of crude enzyme solution in glass vials was added 2 ml of each of the six racemic ketoprofen ester solutions above. […] Reactions were conducted with shaking for 24 hours at 25° C.

[2] = system: cloned AJ3 esterase in recombinant E. coli CS62 lysate; assay: Hydrolysis of racemic butyrate ester of 2-methoxycyclohexanol by lysate of CS62; type: biochemical, Ophiostoma novo-ulmi; conditions: 41 hours, 25° C., pH 8.0
Protocol: Cells (grown as per Example 7) were resuspended at 5% w/v in 100 mM TRIS, pH 8, and lysed by sonication for 15 minutes (10 seconds on, 10 seconds off cycle) at an amplitude of 20 μm in a Soniprep 150. The lysate was centrifuged to remove cell debris and the supernatant used in biotransformation.
10 g of the racemic butyrate ester of 2-methoxycyclo-hexanol was mixed with 100 ml of 100 mm TRIS, pH 8, by magnetic stirring. 20 ml of the above lysate of CS62 was added. The temperature of the biotransformation was controlled at 25° C. and the pH at 8.0 by the addition of 1M NaOH. Samples were removed and monitored for 2-methoxycyclohexanol formation. NaCl was added to saturation to 1 ml sample which was then extracted into 1 ×5 volumes of toluene. The toluene layer was removed and dried by the addition of MgSO4. The sample was then analysed by GC. A 15 m DB-5 column with 0.25 μm film was used with helium as the carrier, at 55.2 kPa, the oven temperature was 60° C. for 1 minute, raised at 10° C./min to 150° C., and this temperature was then held for a further minute.
The ee of the 2-methoxycyclohexanol formed was determined following derivatisation with trifluoroacetic anhydride (TFAA). 20 μl of TFAA was added to 1 ml of the toluene-extracted sample which was then allowed to stand at ambient temperature for 30 minutes. […]

Cells of AJ3 = assay: Whole-broth biotransformation of racemic ethyl ketoprofen by growing cells of AJ3; type: cell-based, Ophiostoma novo-ulmi; conditions: 20 g/l ester in broth, 120 hours
Protocol: This was shaken for 30 hours at 23° C. and then 2.5 ml transferred into a second 250 ml baffled flask containing 30 ml of the same medium as in Example 1. Following growth for 40 hours, at 23° C. with shaking, racemic ethyl ketoprofen was added to the broth to a concentration of 20 g/l.

[3] = system: esterase of AJ3 (Ophiostoma novo-ulmi), crude enzyme solution; assay: Hydrolysis of racemic ethyl naproxen in cyclohexane by crude enzyme lysate of AJ3; type: biochemical; conditions: 72 hours, 23° C.
Protocol: This culture was grown with shaking at 30° C. for 48 hours. 10 ml was then transferred into 90 ml fresh medium in a 1 liter shake flask and grown for a further 8 hours at 30° C. with shaking. This flask was used to inoculate a 2.8 1 laboratory fermenter with 1.5 1 medium plus 5 g/l glucose and 0.5 ml/l of a silicone/PPG-based antifoam (XF0371, Ivanhoe Chemicals, Ill., U.S.A.). This fermenter was operated for 48 hours with agitation and aeration, controlled to maintain a DOT >50% air saturation and temperature and pH at 30° C. and 6.0 respectively.
At the completion of the fermentation the cells were harvested by centrifugation and the pellet resuspended at 10% w/v (based on wet cell weight) in lysis buffer, i.e. 0.1M sodium carbonate in 5% Triton X-100 aqueous solution. Lysis was carried out overnight at 8° C. with shaking after which the enzyme activity-containing lysate was separated from the cell debris by centrifugation. The lysate was then diluted 50% in lysis buffer, prior to its being used to carry out resolution.
Racemic ethyl naproxen (ethyl 6-methoxy-α-methyl-2-naphthaleneacetate) was dissolved in cyclohexane to a concentration of 19 mg/ml. 2 ml of this solution was then mixed with 5 ml of prepared crude enzyme solution in a glass vial and reacted with shaking for 72 hours at 23° C.

[4] = system: cloned AJ3 esterase in recombinant E. coli CS62 lysate; assay: Hydrolysis of racemic ethyl naproxen by cell-free lysate of recombinant strain CS62; type: biochemical, Ophiostoma novo-ulmi; conditions: 1 hour, 25° C.
Protocol: Cells of CS62 grown and stored as described above were used to provide enzyme for use in the hydrolysis of ethyl naproxen. Cells were resuspended at 10% w/v in 0.1M sodium carbonate, pH 10, and lysed by sonication for 10 minutes (10 seconds on, 10 seconds off cycles) at 4° C. The enzyme lysate was then centrifuged to obtain a cell-free supernatant solution.
Racemic ethyl naproxen was dissolved in cyclohexane to a concentration of 100 g/l. 200 μl of this solution was added to 1 ml enzyme solution and shaken for 1 hour at 25° C. The phases were then separated and the aqueous phase analysed (by reverse phase HPLC) for naproxen accumulation.

[5] = Screen of 12 commercially-available lipase/esterase preparations on the butyrate ester; type: biochemical; conditions: racemic butyrate ester of 2-methoxycyclohexanol as substrate
From the text: The stereo-specific activity of this biocatalyst is considered unusual. […] This is potentially advantageous in that it enables access to the (S)-enantiomer as the alcohol without having to exceed 50% conversion.

ACID PRODUCED [1]: 0.3 mg/mL | CONVERSION [1]: 8.0%
Molecule: CCCCOC(=O)C(C)c1cccc(C(=O)c2ccccc2)c1 (racemic) [n-BUTYL]

ACID PRODUCED [1]: 0.09 mg/mL | CONVERSION [1]: 2.3%
Molecule: CCCCCCOC(=O)C(C)c1cccc(C(=O)c2ccccc2)c1 (racemic) [n-HEXYL]

ACID PRODUCED [1]: 0.18 mg/mL | CONVERSION [1]: 4.4%
Molecule: CCCCCOC(=O)C(C)c1cccc(C(=O)c2ccccc2)c1 (racemic) [n-PENTYL]

ACID PRODUCED [1]: 1.0 mg/mL | CONVERSION [1]: 25.6% | EE (%)(S)-enantiomer [1]: 86%
Molecule: CCCOC(=O)C(C)c1cccc(C(=O)c2ccccc2)c1 (racemic) [n-PROPYL]

stereo-specificity of hydrolysis [5]: specificity for the (R)-enantiomer
B1: porcine pancreatic lipase: commercially-available lipase/esterase preparation (protein, UniProt P00591 1-450, looked up)
Pancreatic triacylglycerol …: SEVCFPRLGCFSDDAPWAGIVQRPLKILPWSPKDVDTRFLLYTNQNQNNYQELVADPSTITNSNFRMDRKTRFIIHGFIDKGEEDWLSNICKNLFKVESVNCICVDWKGGSRTGYTQASQNIRIVGAEVAYFVEVLKSSLGYSPSNVHVIGHSLGSHAAGEAGRRTNGTIERITGLDPAEPCFQGTPELVRLDPSDAKFVDVIHTDAAPIIPNLGFGMSQTVGHLDFFPNGGKQMPGCQKNILSQIVDIDGIWEGTRDFVACNHLRSYKYYADSILNPDGFAGFPCDSYNVFTANKCFPCPSEGCPQMGHYADRFPGKTNGVSQVFYLNTGDASNFARWRYKVSVTLSGKKVTGHILVSLFGNEGNSRQYEIYKGTLQPDNTHSDEFDSDVEVGDLQKVKFIWYNNNVINPTLPRVGASKITVERNDGKVYDFCSQETVREEVLLTLNPC

Continued, molecule first:

Molecule: COC(=O)C(C)c1cccc(C(=O)c2ccccc2)c1 (racemic) [METHYL]
ACID PRODUCED [1]: 1.7 mg/mL | CONVERSION [1]: 42.3% | EE (%)(S)-enantiomer [1]: 90%

Molecule: CCCC(=O)OC1CCCCC1OC (racemic) [butyrate ester of 2-methoxycyclo-hexanol]
conversion of the substrate [2]: 44% | ee of the 2-methoxycyclohexanol in favour of the (S)-enantiomer [2]: 96%

Molecule: CCOC(=O)C(C)c1cccc(C(=O)c2ccccc2)c1 (racemic) [ethyl ketoprofen]
enantiomeric excess of ketoprofen acid formed, in favour of the (S)-enantiomer (Cells of AJ3): 96% | hydrolysis of the added ester (Cells of AJ3; HPLC): 18.2%

Molecule: CCOC(=O)C(C)c1ccc2cc(OC)ccc2c1 (racemic) [ethyl naproxen, ethyl 6-methoxy-α-methyl-2-naphthaleneacetate]
enantiomeric purity of naproxen, (S) enantiomer (equivalent to the ee) [3]: 96.5% | ee (enantiomeric excess) of naproxen in favour of the (S) enantiomer ([3]; HPLC): 93% | CONVERSION ([3]; cyclohexane 2-phase): about 40% | accumulation of naproxen in aqueous phase ([3]; ester 19 mg/ml in cyclohexane, 2 ml + 5 ml crude enzyme): 2.76 mg/mL | CONVERSION [4]: about 26% | ee in favour of the S-enantiomer [4]: > 95% | naproxen accumulated in aqueous phase ([4]; ester 100 g/l in cyclohexane, 200 μl + 1 ml enzyme): 5.3 g/L
